Results taken from patent US9908890B2, “Selective inhibitors of constitutive androstane receptor” (ST. JUDE CHILDREN'S RESEARCH HOSPITAL, priority 2014, dated 2018).

What was measured:
[1] = tested on: CAR- and PXR-regulated genes in human primary hepatocytes; experiment: Quantitative real-time PCR in human primary hepatocytes; assay type: cell-based; conditions: three donors, 1 μM CITCO or 5 μM PK11195, 48 h
Excerpt: RNA was extracted, cDNA synthesized, and gene expression analyzed by performing real-time PCR using Taqman probes for each gene. […] LS174T cells were maintained in 10% charcoal-dextran-treated, FBS media for 4 days before the experiment. […] Briefly, human primary hepatocytes (HPH) were maintained in William's E media with supplements for 4 days before treatment. […] RNA extracted was used for cDNA synthesis and measured by performing quantitative real-time PCR assays with Taqman probes.
Briefly, human primary hepatocytes (donor 5) were maintained in William's E Media with supplements for 4 days prior to treatment. […] RNA extracted was used for cDNA synthesis and measured by quantitative real-time PCR with Taqman probes. CYP2B6 and CYP3A4 mRNA were normalized to the internal control 18S and DMSO-treated samples were set to 1.
Cell lines or human hepatocytes were treated with chemicals for 24-48 hours before RNA was extracted and purified by using the Maxwell 16LEV simplyRNA tissue kit (Promega). Then, cDNA was prepared from 2 μg of RNA, and diluted cDNA was used to perform quantitative RT-PCR assays by using TaqMan probes (ABI; 7500 Thermocycler) with 18S as the internal standard.

[2] = tested on: CAR binding to CYP2B6 and CYP3A4 promoter response elements; experiment: Chromatin immunoprecipitation (CAR / RNA polymerase II occupancy at promoters); assay type: cell-based, human; conditions: human primary hepatocytes, 3 donors, overnight, 1 μM CITCO or 5 μM CINPA1
Method: FIG. 8B and FIG. 8C show the fold enrichment of CAR at CYP2B6-dNR3 and CYP2B6-PBREM sites, respectively, in the promoter region following the indicated treatment in human primary hepatocytes. […] Protein complexes were cross-linked and chromatin was immunoprecipitated by using anti-CAR antibody or control IgG. CAR occupancy at two separate CYP2B6 promoter regions (dNR3 and PBREM) was determined by performing quantitative RT-PCR assays. Fold-enrichment normalized to IgG control was plotted. Data represent the mean±SD of 3 experiments. *, p<0.01 comparing CITCO treatment to DMSO treatment.
FIG. 9A, FIG. 9B, and FIG. 9C show the fold enrichment of CAR at CYP2B6-dNR3, CYP3A4-XREM, and CYP2B6-dNR3 sites, respectively, in the promoter region following the indicated treatment in human primary hepatocytes or HepG2-hCAR1 cells, as indicated in the figures. Briefly, in FIG. 9A and FIG. […] 9C HepG2-hCAR1 stable cells were treated for […] with DMSO, 1 μM CITCO, 5 μM CINPA1, or 1 μM CITCO+5 μM CINPA1. Protein complexes were cross-linked and chromatin was immunoprecipitated by using anti-CAR antibody, anti-RNA polymerase II (RPol) antibody, or control IgG. CAR or RPol occupancy at the CYP2B6-dNR3 region and CYP3A4-XREM region was determined by performing quantitative RT-PCR assays. Fold-enrichment was normalized to IgG control. Data represent the mean±SD of 3 experiments. *, p<0.001 and #, p<0.01 comparing CITCO to DMSO samples. **, p<0.001 and ##, p<0.01 comparing CITCO+CINPA1 to CITCO samples.
ChIP was performed as described previously (Cherian, M. T., et al. (2012) J. Biol. Chem. 287, 23368-23380). Briefly, human hepatocytes in 6-well plates were maintained for 3-4 days in Williams E medium containing Primary Hepatocyte Maintenance Supplement (Life Technologies), with daily media changes. Nine wells were used for each treatment group. […] The HepG2-hCAR1 stable cells in FIG. 9 were treated with DMSO, 1 μM CITCO, 5 μM CINPA1, or 1 μM CITCO+5 μM CINPA1 for […]. In FIG. 9, the hepatocytes from donor 7 were treated with DMSO, 0.1 μM CITCO, 1 μM CINPA1, or 0.1 μM CITCO+1 μM CINPA1 for 45 min. Proteins were cross-linked with 1% formaldehyde for 10 min. Cell extracts were digested for 10 min with 50 units of micrococcal nuclease (New England Biolabs) at 37° C. and further sonicated to yield sheared DNA fragments having an average length of 200-1000 base pairs. The sonicated samples were pelleted by centrifugation, and the supernatant was diluted 3- to 5-fold with ChIP dilution buffer (0.01% SDS, 1.1% Triton X-100, 1.2 mM EDTA, 16.7 mM Tris-HCl, pH 8.1, 167 mM NaCl, and protease inhibitor cocktail). […] Quantitative RT-PCR assays were performed to determine the change in CAR occupancy at various sites of CAR binding. […]

CYP2B6 mRNA level, compound alone [1]: induced CYP2B6 levels
CAR recruitment to XREM (dNR3) of the CYP2B6 gene [2]: enhances recruitment of CAR
Compound: Clc1ccc(-c2nc3sccn3c2/C=N/OCc2ccc(Cl)c(Cl)c2)cc1 [CITCO, 6-(4-chlorophenyl)imidazo [2,1-b][1,3]thiazole-5-carbaldehyde O-(3,4-dichlorobenzyl) oxime, reference compound]
